Experimental data as given in patent publication US9422264B2, “Carbamate-substituted oxindole derivatives and use thereof for the treatment of vasopressin-dependent diseases” (AbbVie Deutschland GmbH & Co. KG, priority 2007, dated 2016).
Structures can show the parent of a compound that is named as a salt.

Assays:
[1] = target: T1, human vasopressin V1b receptor (Homo sapiens, UniProt P47901); assay: Vasopressin V1b receptor binding assay; settings: read-out: Ki(h-V1b)*
T1 construct: expressed in transfected cells; host or cells: CHO-K1 (cell line hV1b_3H2_CHO)
T1 sequence (P47901 1-424): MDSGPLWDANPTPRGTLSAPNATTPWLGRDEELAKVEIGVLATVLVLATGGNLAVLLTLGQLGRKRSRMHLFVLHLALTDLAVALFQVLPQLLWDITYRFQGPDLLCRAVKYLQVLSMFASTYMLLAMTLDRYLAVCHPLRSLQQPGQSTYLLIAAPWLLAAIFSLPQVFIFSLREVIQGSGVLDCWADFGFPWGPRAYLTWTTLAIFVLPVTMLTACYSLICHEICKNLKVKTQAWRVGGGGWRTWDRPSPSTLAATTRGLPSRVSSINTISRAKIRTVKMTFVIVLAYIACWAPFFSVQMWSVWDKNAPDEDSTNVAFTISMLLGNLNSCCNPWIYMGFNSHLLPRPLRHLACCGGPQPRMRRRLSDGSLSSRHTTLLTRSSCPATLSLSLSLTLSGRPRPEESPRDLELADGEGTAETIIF
Experimental: 1. Vasopressin V1b Receptor Binding Assay:
The substance concentration was further diluted 1:5 in the assay mixture (2% DMSO in the mixture).
All determinations were carried out as triplicate determinations.

[2] = target: human vasopressin V1a receptor (Homo sapiens, UniProt P37288); assay: Vasopressin V1a receptor binding assay; settings: selectivity quotient, human V1a versus human V1b
Sequence of human vasopressin V1a receptor (P37288 whole entry): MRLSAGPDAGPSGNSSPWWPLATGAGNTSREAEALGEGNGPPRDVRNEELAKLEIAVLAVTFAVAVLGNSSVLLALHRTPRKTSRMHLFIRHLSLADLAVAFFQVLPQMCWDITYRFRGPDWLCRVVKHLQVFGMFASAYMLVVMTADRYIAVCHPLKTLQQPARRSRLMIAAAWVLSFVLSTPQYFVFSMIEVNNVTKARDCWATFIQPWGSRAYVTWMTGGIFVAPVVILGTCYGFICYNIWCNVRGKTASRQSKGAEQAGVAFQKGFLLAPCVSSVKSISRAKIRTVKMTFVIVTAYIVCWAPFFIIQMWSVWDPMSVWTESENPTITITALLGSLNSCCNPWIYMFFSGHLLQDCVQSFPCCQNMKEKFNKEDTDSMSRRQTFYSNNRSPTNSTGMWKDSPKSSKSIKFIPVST

[3] = Determination of the microsomal half-life / microsomal clearance (human liver microsomes); assay type: in vitro ADME; settings: pH 7.4, 0.5 μM test substance
Experimental: 5. Determination of the Microsomal Half-Life:
The metabolic stability of the compounds of the invention was determined in the following assay.
The test substances were incubated in a concentration of 0.5 μM as follows:
0.5 μM test substance are preincubated together with liver microsomes from different species (from rat, human or other species) (0.25 mg of microsomal protein/ml) in 0.05 M potassium phosphate buffer of pH 7.4 in microtiter plates at 37° C. for 5 min. The reaction is started by adding NADPH (1 mg/mL). After 0, 5, 10, 15, 20 and 30 min, 50 μl aliquots are removed, and the reaction is immediately stopped and cooled with the same volume of acetonitrile. The samples are frozen until analyzed. The remaining concentration of undegraded test substance is determined by MSMS. The half-life (T½) is determined from the gradient of the signal of test substance/unit time plot, it being possible to calculate the half-life of the test substance, assuming first order kinetics, from the decrease in the concentration of the compound with time. The microsomal clearance (mCl) is calculated from mCl=In2/T½/(content of microsomal protein in mg/ml)×1000 […] (modified from references: Di, The Society for Biomoleculur Screening, 2003, 453-462; Obach, DMD, 1999 vol. 27. N 11, 1350-1359).

[4] = target: T2, recombinant human oxytocin receptors (Homo sapiens, UniProt P30559); assay: Oxytocin receptor binding assay; settings: selectivity quotient, human OT versus human V1b
T2 construct: expressed in transfected cells; host or cells: HEK-293 (transient)
T2 sequence (P30559 1-389): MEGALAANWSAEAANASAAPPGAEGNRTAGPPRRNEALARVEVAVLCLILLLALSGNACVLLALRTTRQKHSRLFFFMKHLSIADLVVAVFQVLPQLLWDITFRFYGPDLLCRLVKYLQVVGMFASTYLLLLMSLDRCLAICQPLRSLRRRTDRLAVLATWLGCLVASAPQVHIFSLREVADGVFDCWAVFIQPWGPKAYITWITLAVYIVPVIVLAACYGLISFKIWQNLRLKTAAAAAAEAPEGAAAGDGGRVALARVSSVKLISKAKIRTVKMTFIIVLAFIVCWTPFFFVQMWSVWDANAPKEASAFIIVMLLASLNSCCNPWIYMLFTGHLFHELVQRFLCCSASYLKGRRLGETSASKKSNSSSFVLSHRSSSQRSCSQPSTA
Experimental: 4. Oxytocin Receptor Binding Assay
Confluent HEK-293 cells with transiently expressing recombinant human oxytocin receptors were centrifuged at 750×g at room temperature for 5 minutes. The residue was taken up in ice-cold lysis buffer (50 mM Tris-HCl, 10% glycerol, pH 7.4 and Roche complete protease inhibitor) and subjected to an osmotic shock at 4° C. for 20 minutes. The lyzed cells were then centrifuged at 750×g at 4° C. for 20 minutes, the residue was taken up in incubation buffer, and aliquots of 10^7 cells/ml were prepared. The aliquots were frozen at −80° C. until used.
On the day of the experiment, the cells were thawed, diluted with incubation buffer and homogenized using a Multipette Combitip (Eppendorf, Hamburg). […] The nonspecific binding was determined with 10^−6 M oxytocin (Bachem AG, H2510). Triplicate determinations were set up. Bound and free radioligand were separated by filtration under vacuum with Whatman GF/B glass fiber filters with the aid of a Skatron cell harvester 7000. The bound radioactivity was determined by liquid scintillation measurement in a Tricarb Beta counter, model 2000 or 2200CA (Packard).

In the case of `CCOc1ncccc1C1(OC(=O)N2CCN(C3CCNCC3)CC2)C(=O)N(S(=O)(=O)c2ccccc2)c2ccc(C#N)cc21` (racemic) [Example 28, (±)-5-Cyano-3-(2-ethoxypyridin-3-yl)-2-oxo-1-(phenylsulfonyl)-2,3-dihydro-1H-indol-3-yl 4-piperidin-4-ylpiperazine-1-carboxylate as bis(trifluoroacetic acid) salt], the Ki [1] is reported as 10 to 50 nM, the “Ki(h-V1a)/Ki(h-V1b)*” value [2] is reported as “++ (>25-75)” and the microsomal CLint at 0.5 μM [3] is reported as < 50 µL/min/mg. The “Ki(h-OT)/Ki(h-V1b)*” value [4] was “+++ (>45)”.
In the case of `CCOc1ncccc1C1(OC(=O)N2CCC(N3CCNCC3)CC2)C(=O)N(S(=O)(=O)c2ccc(OC)cc2OC)c2ccc(C#N)cc21` (centres unmarked) [Example 55, 5-Cyano-1-[(2,4-dimethoxyphenyl)sulfonyl]-3-(2-ethoxypyridin-3-yl)-2-oxo-2,3-dihydro-1H-indol-3-yl-4-piperazin-1-ylpiperidine-1-carboxylate as bis(trifluoroacetic acid) salt], the Ki [1] is reported as < 10 nM, the “Ki(h-V1a)/Ki(h-V1b)*” value [2] is reported as “++ (>25-75)” and the microsomal CLint at 0.5 μM [3] is reported as 75 to 200 µL/min/mg. The “Ki(h-OT)/Ki(h-V1b)*” value [4] was “+ (15-25)”.
